The results in this text go back to patent US7598255B2 (Janssen Pharmaceutica NV, priority 2005, dated 2009).

Where a name gives a salt, the structure may show the parent alone.

As usually defined, the Ki is a dissociation constant, usually derived from enzyme kinetics or from competition with a known ligand.

One experiment has as its target 5-HT2A receptor (Homo sapiens, UniProt P28223). Put plainly: Affinity for 5-HT2A receptor binding sites, radioligand binding with [3H]ketanserin. The note with it: read-out: Ki 5-HT2A, rat cortex membranes (assay 2) or NIH3T3 h5-HT2A membranes (assay 3), table does not say which.
In experiment [1] the target is T1, human recombinant 5-HT2C receptor (Homo sapiens, UniProt P28335).
T1 sequence (P28335 33-458): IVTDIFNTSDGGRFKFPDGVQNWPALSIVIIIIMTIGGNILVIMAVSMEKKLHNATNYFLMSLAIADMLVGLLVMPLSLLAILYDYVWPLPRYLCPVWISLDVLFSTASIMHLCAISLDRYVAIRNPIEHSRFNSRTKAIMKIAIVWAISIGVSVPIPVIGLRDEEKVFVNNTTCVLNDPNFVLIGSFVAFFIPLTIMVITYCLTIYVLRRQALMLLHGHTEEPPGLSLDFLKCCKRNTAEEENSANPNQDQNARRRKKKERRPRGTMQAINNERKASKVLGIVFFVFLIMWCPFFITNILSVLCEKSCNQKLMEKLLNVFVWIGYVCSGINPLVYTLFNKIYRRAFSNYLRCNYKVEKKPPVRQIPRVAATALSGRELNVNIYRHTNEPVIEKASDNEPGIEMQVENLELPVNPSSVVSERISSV
Nature of the experiment: Affinity for 5HT2 receptor binding sites, h5-HT2C, [3H]mesulergine. To be noted: CHO h5-HT2C membranes.
Experimental: (§1) Sigmoidal inhibition curves were generated and fitted by nonlinear regression analysis (GraphPad Prism).
(§2) Receptor binding was performed using the human recombinant 5-HT2A (GB: X57830), 5-HT2B (GB: Z36748) and 5-HT2C (GB: M81778) receptors. The affinity of the compounds for the 3 different human 5-HT2 receptor subtypes was evaluated by competitive radioligand binding assays using [^3H]ketanserin (h5-HT2A) or [^3H]mesulergine (h5-HT2B and h5-HT2C). The assays were performed on membranes prepared from NIH3T3 stably transfected with h5-HT2A or CHO stably transfected with h5-HT2B and h5-HT2C.

The next experiment concerns the target rat 5-HT7a receptor (Rattus norvegicus, UniProt P32305). Nature of the experiment: Affinity for 5-HT7 receptor binding sites, radioligand binding with [3H]5-CT. The note with it: membranes of HEK-293 cells with rat 5-HT7a, 1 nM [3H]5-CT. On the procedure:
The affinity of the compounds described in this invention for the 5-HT7 receptor binding site was evaluated by single competition radioligand binding assay. The assay was performed on membranes prepared from HEK-293 cells that had been subjected to stable transfection with the rat 5-HT7a receptor (GB: NM022938). Cells were scraped from the culture plates, suspended in Tris-HCl 50 mM pH 7.5 and collected through centrifugation (1000 rpm for 5 min). The cell pellets were homogenized (Polytron, 15 s, setting 5) in 50 mM Tris-HCl (pH 7.5), 5 mM EDTA. Following centrifugation (15,000 rpm for 25 min), membranes (135 μg protein/mL) were resuspended in the same buffer and incubated for 60 min at RT with 1 nM [^3H]5-CT in the presence of increasing concentration of test compounds. Nonspecific binding was defined in the presence of 10 μM 5-HT. Incubation was stopped by rapid filtration using the cell harvester (Packard). Radioactivity was counted in a TopCount-NXT (Packard). Experiments were conducted in triplicate.

The target of the next experiment is 5-HT2B receptor (Homo sapiens, UniProt P41595). Nature of the experiment: Affinity for 5HT2 receptor binding sites, h5-HT2B, [3H]mesulergine. To be noted: CHO h5-HT2B membranes.
5-HT2B receptor, sequence (P41595 whole entry): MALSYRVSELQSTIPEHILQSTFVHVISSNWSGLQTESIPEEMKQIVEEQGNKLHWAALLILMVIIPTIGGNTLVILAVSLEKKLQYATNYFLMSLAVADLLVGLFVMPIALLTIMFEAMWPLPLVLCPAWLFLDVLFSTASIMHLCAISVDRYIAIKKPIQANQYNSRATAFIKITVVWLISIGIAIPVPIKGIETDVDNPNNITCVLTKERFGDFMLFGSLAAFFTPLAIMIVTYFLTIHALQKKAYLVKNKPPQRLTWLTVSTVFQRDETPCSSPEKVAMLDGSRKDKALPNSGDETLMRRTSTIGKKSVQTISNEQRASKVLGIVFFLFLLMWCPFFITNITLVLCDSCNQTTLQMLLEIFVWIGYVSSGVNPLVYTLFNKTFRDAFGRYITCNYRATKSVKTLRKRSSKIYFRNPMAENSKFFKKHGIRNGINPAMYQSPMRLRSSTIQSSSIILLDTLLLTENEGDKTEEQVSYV

rat 5-HT7a receptor, sequence (P32305 whole entry): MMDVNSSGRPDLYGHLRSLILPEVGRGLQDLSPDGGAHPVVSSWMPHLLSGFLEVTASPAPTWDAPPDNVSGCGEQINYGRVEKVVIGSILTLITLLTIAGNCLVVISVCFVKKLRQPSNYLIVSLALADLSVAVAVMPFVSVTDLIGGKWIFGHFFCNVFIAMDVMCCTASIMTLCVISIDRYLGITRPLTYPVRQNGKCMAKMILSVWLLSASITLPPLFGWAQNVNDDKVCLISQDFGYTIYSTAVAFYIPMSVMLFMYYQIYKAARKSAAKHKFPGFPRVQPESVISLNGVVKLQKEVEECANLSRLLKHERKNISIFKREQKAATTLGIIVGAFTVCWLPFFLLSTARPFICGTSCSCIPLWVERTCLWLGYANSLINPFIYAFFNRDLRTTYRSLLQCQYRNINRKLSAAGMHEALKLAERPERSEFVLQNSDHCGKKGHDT
Experimental for 5-HT2B receptor: as §1, §2

`COc1ccc(-c2nc(Cc3ccccc3)nc3c2CCN(Cc2ccccc2)C3)cc1` [Example 73, 2,7-Dibenzyl-4-(4-methoxy-phenyl)-5,6,7,8-tetrahydro-pyrido[3,4-d]pyrimidine]: the Ki at 5-HT2A receptor is 140 nM; in experiment [1], greater than 10000 nM; at rat 5-HT7a receptor, greater than 10000 nM; at 5-HT2B receptor, greater than 10000 nM.

Regarding `CC(C)c1nc2c(c(-c3ccc(F)cc3)n1)CCN(Cc1ccccc1)C2` [Example 74, 7-Benzyl-4-(4-fluoro-phenyl)-2-isopropyl-5,6,7,8-tetrahydro-pyrido[3,4-d]pyrimidine], the Ki at 5-HT2A receptor was 47 nM; in experiment [1], greater than 10000 nM; at rat 5-HT7a receptor it was greater than 10000 nM; on 5-HT2B receptor, 1900 nM.

On to `CC(C)c1nc2c(c(-c3ccccc3)n1)CCN(Cc1ccccc1)C2` [Example 75, 7-Benzyl-2-isopropyl-4-phenyl-5,6,7,8-tetrahydro-pyrido[3,4-d]pyrimidine], for which the Ki on 5-HT2A receptor was 70 nM; in experiment [1] it was greater than 10000 nM; at rat 5-HT7a receptor, 5000 nM; on 5-HT2B receptor it was 3000 nM.

As for `COc1ccc(-c2nc(Cc3ccccc3)nc3c2CCNC3)cc1` [Example 79, 2-Benzyl-4-(4-methoxy-phenyl)-5,6,7,8-tetrahydro-pyrido[3,4-d]pyrimidine], the Ki was determined as 115 nM on 5-HT2A receptor, 900 nM in experiment [1], 300 nM at rat 5-HT7a receptor and 435 nM at 5-HT2B receptor.

Turning to `CC(C)c1nc2c(c(-c3ccccc3)n1)CCNC2` [Example 81, 2-Isopropyl-4-phenyl-5,6,7,8-tetrahydro-pyrido[3,4-d]pyrimidine], the Ki at 5-HT2A receptor is 25 nM; in experiment [1] it was 6000 nM; at rat 5-HT7a receptor, greater than 10000 nM; on 5-HT2B receptor, 450 nM.

Regarding `CC(C)c1nc2c(c(-c3ccc(F)cc3)n1)CCN(C)C2` [Example 84, 4-(4-Fluoro-phenyl)-2-isopropyl-7-methyl-5,6,7,8-tetrahydro-pyrido[3,4-d]pyrimidine hydrochloride], the Ki on 5-HT2A receptor was 14 nM; in experiment [1] it was 5000 nM; at rat 5-HT7a receptor it was greater than 10000 nM; at 5-HT2B receptor it was 400 nM.

For `CC(C)c1nc2c(c(-c3ccccc3)n1)CCN(C)C2` [Example 85, 2-Isopropyl-7-methyl-4-phenyl-5,6,7,8-tetrahydro-pyrido[3,4-d]pyrimidine], the Ki on 5-HT2A receptor was 82 nM; in experiment [1], greater than 10000 nM; on rat 5-HT7a receptor, greater than 10000 nM; on 5-HT2B receptor, 1150 nM.

On to `Cc1cc(-c2nc(C(C)C)nc3c2CCN(Cc2ccccc2)C3)cs1` [Example 86, 7-Benzyl-2-isopropyl-4-(5-methyl-thiophen-3-yl)-5,6,7,8-tetrahydro-pyrido[3,4-d]pyrimidine hydrochloride], for which the Ki on 5-HT2A receptor is 100 nM; in experiment [1], greater than 10000 nM; at rat 5-HT7a receptor, 9000 nM; on 5-HT2B receptor, 4100 nM.

On to `CC(C)c1nc2c(c(-c3ccsc3)n1)CCN(Cc1ccccc1)C2` [Example 87, 7-Benzyl-2-isopropyl-4-thiophen-3-yl-5,6,7,8-tetrahydro-pyrido[3,4-d]pyrimidine hydrochloride], for which the Ki on 5-HT2A receptor is 600 nM; in experiment [1], greater than 10000 nM; on rat 5-HT7a receptor it was greater than 10000 nM; at 5-HT2B receptor, 2000 nM.

As to `Cc1cc(-c2nc(C(C)C)nc3c2CCNC3)cs1` [Example 88, 2-Isopropyl-4-(5-methyl-thiophen-3-yl)-5,6,7,8-tetrahydro-pyrido[3,4-d]pyrimidine hydrochloride], the Ki was found to be 13 nM at 5-HT2A receptor, 185 nM in experiment [1], 550 nM on rat 5-HT7a receptor and 60 nM on 5-HT2B receptor.

Regarding `CC(C)c1nc2c(c(-c3ccsc3)n1)CCNC2` [Example 89, 2-Isopropyl-4-thiophen-3-yl-5,6,7,8-tetrahydro-pyrido[3,4-d]pyrimidine hydrochloride], the Ki was 25 nM on 5-HT2A receptor, 1400 nM in experiment [1], greater than 10000 nM at rat 5-HT7a receptor and 40 nM on 5-HT2B receptor.

On to `Cc1cc(-c2nc(C(C)C)nc3c2CCN(C)C3)cs1` [Example 90, 2-Isopropyl-7-methyl-4-(5-methyl-thiophen-3-yl)-5,6,7,8-tetrahydro-pyrido[3,4-d]pyrimidine hydrochloride], for which the Ki came out at 17 nM at 5-HT2A receptor, 1000 nM in experiment [1], 2300 nM at rat 5-HT7a receptor and 130 nM at 5-HT2B receptor.

Consider `CC(C)c1nc2c(c(-c3ccsc3)n1)CCN(C)C2` [Example 91, 2-Isopropyl-7-methyl-4-thiophen-3-yl-5,6,7,8-tetrahydro-pyrido[3,4-d]pyrimidine hydrochloride], for which the Ki was 75 nM at 5-HT2A receptor, 9000 nM in experiment [1], greater than 10000 nM at rat 5-HT7a receptor and 200 nM at 5-HT2B receptor.

With `CC(C)c1nc(-c2ccc(F)cc2)c2c(n1)C(C)CN(Cc1ccccc1)C2` (centres unmarked) [Example 92, 6-Benzyl-4-(4-fluoro-phenyl)-2-isopropyl-8-methyl-5,6,7,8-tetrahydro-pyrido[4,3-d]pyrimidine], the Ki was 300 nM at 5-HT2A receptor, greater than 10000 nM in experiment [1], greater than 10000 nM at rat 5-HT7a receptor and greater than 10000 nM on 5-HT2B receptor.

Turning to `CC(C)c1nc(-c2ccc(F)c(Cl)c2)c2c(n1)C(C)CN(Cc1ccccc1)C2` (centres unmarked) [Example 93, 6-Benzyl-4-(3-chloro-4-fluoro-phenyl)-2-isopropyl-8-methyl-5,6,7,8-tetrahydro-pyrido[4,3-d]pyrimidine], the Ki (at 5-HT2A receptor; in experiment [1]; at rat 5-HT7a receptor; at 5-HT2B receptor) was greater than 10000 nM each time.

Turning to `Cc1ccc(-c2nc(C(C)C)nc3c2CN(Cc2ccccc2)CC3C)cc1` (centres unmarked) [Example 94, 6-Benzyl-2-isopropyl-8-methyl-4-p-tolyl-5,6,7,8-tetrahydro-pyrido[4,3-d]pyrimidine], the inhibition constant Ki (on 5-HT2A receptor; in experiment [1]; on rat 5-HT7a receptor; on 5-HT2B receptor) was greater than 10000 nM each time.

Regarding `CC(C)c1nc(-c2ccccc2)c2c(n1)C(C)CN(Cc1ccccc1)C2` (centres unmarked) [Example 95, 6-Benzyl-2-isopropyl-8-methyl-4-phenyl-5,6,7,8-tetrahydro-pyrido[4,3-d]pyrimidine], the Ki on 5-HT2A receptor was 2000 nM; in experiment [1] it was greater than 10000 nM; at rat 5-HT7a receptor it was greater than 10000 nM; on 5-HT2B receptor, greater than 10000 nM.

Consider `CC(C)c1nc(-c2ccc(C(F)(F)F)cc2)c2c(n1)C(C)CN(Cc1ccccc1)C2` (centres unmarked) [Example 96, 6-Benzyl-2-isopropyl-8-methyl-4-(4-trifluoromethyl-phenyl)-5,6,7,8-tetrahydro-pyrido[4,3-d]pyrimidine], for which the Ki (on 5-HT2A receptor; in experiment [1]; at rat 5-HT7a receptor; on 5-HT2B receptor) was greater than 10000 nM in each case.

As to `CC(C)c1nc(-c2ccc(Cl)cc2)c2c(n1)C(C)CN(Cc1ccccc1)C2` (centres unmarked) [Example 97, 6-Benzyl-4-(4-chloro-phenyl)-2-isopropyl-8-methyl-5,6,7,8-tetrahydro-pyrido[4,3-d]pyrimidine], the Ki (at 5-HT2A receptor; in experiment [1]; on rat 5-HT7a receptor; on 5-HT2B receptor) was greater than 10000 nM in each case.

Turning to `CC(C)c1nc(-c2ccsc2)c2c(n1)C(C)CN(Cc1ccccc1)C2` (centres unmarked) [Example 98, 6-Benzyl-2-isopropyl-8-methyl-4-thiophen-3-yl-5,6,7,8-tetrahydro-pyrido[4,3-d]pyrimidine], the inhibition constant (Ki) (on 5-HT2A receptor; in experiment [1]; on rat 5-HT7a receptor; at 5-HT2B receptor) was greater than 10000 nM in each case.

`CC(C)c1nc(-c2ccc(-c3ccc(Cl)cc3)cc2)c2c(n1)C(C)CN(Cc1ccccc1)C2` (centres unmarked) [Example 99, 6-Benzyl-4-(4′-chloro-biphenyl-4-yl)-2-isopropyl-8-methyl-5,6,7,8-tetrahydro-pyrido[4,3-d]pyrimidine]: the Ki (at 5-HT2A receptor; in experiment [1]; at rat 5-HT7a receptor; on 5-HT2B receptor) was greater than 10000 nM in each case.

As for `CC(C)c1nc(-c2ccc(F)c(Cl)c2)c2c(n1)C(C)CNC2` (centres unmarked) [Example 101, 4-(3-Chloro-4-fluoro-phenyl)-2-isopropyl-8-methyl-5,6,7,8-tetrahydro-pyrido[4,3-d]pyrimidine hydrochloride], the Ki is 400 nM on 5-HT2A receptor, greater than 10000 nM in experiment [1], greater than 10000 nM at rat 5-HT7a receptor and greater than 10000 nM on 5-HT2B receptor.

In the case of `CC(C)c1nc(-c2ccccc2)c2c(n1)C(C)CNC2` (centres unmarked) [Example 103, 2-Isopropyl-8-methyl-4-phenyl-5,6,7,8-tetrahydro-pyrido[4,3-d]pyrimidine], the Ki on 5-HT2A receptor was 40 nM; in experiment [1], 1000 nM; on rat 5-HT7a receptor, greater than 10000 nM; on 5-HT2B receptor, 1000 nM.
